± gives the expanded uncertainty stated by the source.
Experiment: xn = mol fraction of the nth substance listed
Conditions: 101 kPa, Liquid; for viscosity: Capillary tube (Ostwald / Ubbelohde) method; for mass density: Vibrating tube method

CCCCn1cc[n+](C)c1.[Cl-] [1-butyl-3-methylimidazolium chloride] + O
Conditions	mass density, 298.15 K [kg/m3]	mass density, 313.15 K [kg/m3]	mass density, 328.15 K [kg/m3]	mass density, 343.15 K [kg/m3]	viscosity, 298.15 K [mPa·s]	viscosity, 313.15 K [mPa·s]	viscosity, 328.15 K [mPa·s]	viscosity, 343.15 K [mPa·s]
x2 = 0.5666	1081 ± 1.5	1072 ± 1.5	1063.4 ± 1.5	1054.7 ± 1.5	123.5 ± 3	56.63 ± 0.88	30.04 ± 0.47	17.69 ± 0.27
x2 = 0.607	1079.9 ± 1.4	1070.8 ± 1.4	1062 ± 1.4	1053.1 ± 1.4	72.16 ± 1.1	35.36 ± 0.51	19.75 ± 0.28	12.2 ± 0.17
x2 = 0.6933	1076.5 ± 1.2	1067.2 ± 1.2	1058.1 ± 1.2	1048.8 ± 1.2	35.66 ± 0.45	18.94 ± 0.24	11.32 ± 0.14	7.386 ± 0.096
x2 = 0.7698	1071.1 ± 1.1	1061.5 ± 1	–	–	18.08 ± 0.21	10.11 ± 0.12	–	–
x2 = 0.7699	–	–	1052.1 ± 1	1042.4 ± 1	–	–	6.474 ± 0.076	4.419 ± 0.053
x2 = 0.8279	1063.8 ± 0.9	1054.1 ± 0.9	1044.5 ± 0.9	1034.4 ± 0.9	10.19 ± 0.11	6.125 ± 0.067	4.019 ± 0.045	2.858 ± 0.032
x2 = 0.8674	1057.1 ± 0.8	1047.1 ± 0.8	1037.3 ± 0.8	1027.1 ± 0.8	6.628 ± 0.067	4.123 ± 0.043	2.795 ± 0.03	2.043 ± 0.022
x2 = 0.9194	1042.3 ± 0.7	1032.8 ± 0.7	1023.3 ± 0.7	1013.1 ± 0.7	3.543 ± 0.035	2.311 ± 0.023	1.635 ± 0.017	1.228 ± 0.013
x2 = 0.9625	1022.3 ± 0.6	1014 ± 0.6	1006.1 ± 0.6	996.7 ± 0.6	1.886 ± 0.018	1.297 ± 0.013	0.955 ± 0.009	0.741 ± 0.008
x2 = 0.9885	1005.2 ± 0.5	999.1 ± 0.5	989.3 ± 0.5	979.6 ± 0.5	1.175 ± 0.011	0.955 ± 0.009	0.753 ± 0.007	0.652 ± 0.007

CCCCCCn1cc[n+](C)c1.[Cl-] [1-hexyl-3-methylimidazolium chloride] + O
Conditions	mass density, 298.15 K [kg/m3]	mass density, 313.15 K [kg/m3]	mass density, 328.15 K [kg/m3]	mass density, 343.15 K [kg/m3]	viscosity, 298.15 K [mPa·s]	viscosity, 313.15 K [mPa·s]	viscosity, 328.15 K [mPa·s]	viscosity, 343.15 K [mPa·s]
x2 = 0	1039.67 ± 2.7	1031.13 ± 2.7	1022.69 ± 2.7	1014.34 ± 2.7	18089 ± 1800	3429 ± 260	942.1 ± 52	339.5 ± 14
x2 = 0.1274	1040.45 ± 2.5	1031.89 ± 2.4	1023.44 ± 2.4	1015.06 ± 2.4	7667 ± 670	1746 ± 110	516.4 ± 23	207.4 ± 6.9
x2 = 0.3173	1040.7 ± 2	1032.22 ± 2	1023.8 ± 2	1015.5 ± 2	1020 ± 56	393.5 ± 16	165.7 ± 4.6	79.07 ± 1.6
x2 = 0.3906	1040.95 ± 1.9	1032.63 ± 1.8	1024.3 ± 1.8	1015.77 ± 1.8	499.4 ± 21	188.9 ± 5.4	86.76 ± 1.7	45.52 ± 0.81
x2 = 0.5594	1041.4 ± 1.5	1032.76 ± 1.5	1024.14 ± 1.5	1015.4 ± 1.4	201.2 ± 5.5	88.11 ± 1.5	44.87 ± 0.65	25.37 ± 0.37
x2 = 0.7127	1038.77 ± 1.1	1029.8 ± 1.1	1020.75 ± 1.1	1011.45 ± 1.1	60.75 ± 0.72	30.04 ± 0.36	16.83 ± 0.2	10.39 ± 0.12
x2 = 0.783	1035.72 ± 0.99	1026.67 ± 0.98	1017.17 ± 0.97	1007.71 ± 0.96	33.79 ± 0.35	17.49 ± 0.18	10.17 ± 0.11	6.542 ± 0.07
x2 = 0.8935	1025.28 ± 0.74	1016.2 ± 0.74	1006.79 ± 0.73	997 ± 0.72	8.688 ± 0.078	5.191 ± 0.048	3.367 ± 0.031	2.358 ± 0.022
x2 = 0.9417	1018.17 ± 0.64	1009.43 ± 0.63	1000.13 ± 0.63	990.26 ± 0.62	3.505 ± 0.03	2.323 ± 0.02	1.649 ± 0.014	1.224 ± 0.011

CCCCCCCC[n+]1ccn(C)c1.[Cl-] [1-methyl-3-octylimidazolium chloride] + O
Conditions	mass density, 298.15 K [kg/m3]	mass density, 313.15 K [kg/m3]	mass density, 328.15 K [kg/m3]	mass density, 343.15 K [kg/m3]	viscosity, 298.15 K [mPa·s]	viscosity, 313.15 K [mPa·s]	viscosity, 328.15 K [mPa·s]	viscosity, 343.15 K [mPa·s]
x2 = 0	1008.82 ± 2.7	1000.2 ± 2.6	991.67 ± 2.6	983.24 ± 2.6	20883 ± 2800	4066 ± 400	1091 ± 78	387.2 ± 20
x2 = 0.1484	1009.61 ± 2.3	1000.98 ± 2.3	992.42 ± 2.3	983.87 ± 2.3	5570 ± 580	1470 ± 110	484.6 ± 26	200.1 ± 7.5
x2 = 0.203	1009.99 ± 2.2	1001.35 ± 2.2	992.77 ± 2.2	984.21 ± 2.1	3815 ± 370	1097 ± 77	393.5 ± 20	165.4 ± 5.6
x2 = 0.4076	1011.83 ± 1.8	1003.2 ± 1.8	994.4 ± 1.7	985.6 ± 1.7	1325 ± 97	387.9 ± 19	170.8 ± 5.5	84.75 ± 1.8
x2 = 0.5334	1012.7 ± 1.5	1003.76 ± 1.5	994.81 ± 1.5	985.96 ± 1.5	921.1 ± 60	337.9 ± 15	147.7 ± 4.1	74.31 ± 1.3
x2 = 0.6807	1012.37 ± 1.2	1003.16 ± 1.2	993.98 ± 1.2	984.8 ± 1.1	433 ± 21	175.5 ± 5.2	83.26 ± 1.4	44.23 ± 0.56
x2 = 0.8185	1009.16 ± 0.89	1000.09 ± 0.88	990.76 ± 0.87	981.11 ± 0.86	193.4 ± 6	83.87 ± 1.2	42.22 ± 0.43	24.22 ± 0.25
x2 = 0.8803	1006.63 ± 0.76	997.6 ± 0.75	988.16 ± 0.74	978.39 ± 0.74	80.77 ± 1.1	38.02 ± 0.36	20.45 ± 0.19	12.17 ± 0.12
x2 = 0.9307	1003.69 ± 0.65	995.12 ± 0.64	985.89 ± 0.64	976.15 ± 0.63	22.48 ± 0.2	13.27 ± 0.12	8.18 ± 0.07	5.33 ± 0.05
x2 = 0.9635	1001.1 ± 0.58	993.58 ± 0.58	985.06 ± 0.57	975.71 ± 0.57	5.71 ± 0.05	4.25 ± 0.04	3.3 ± 0.03	2.65 ± 0.03

— the NIST ThermoML archive (doi:10.1021/je050460d)
